Reference: patent US9505781B2, “Compositions comprising thienopyrimidine and thienopyridine compounds and methods of use thereof” (The Regents of the University of Michigan, priority 2013, dated 2016)

Target: T1, menin-MLL interaction (Homo sapiens, UniProt O00255)
T1 sequence (O00255 1-610): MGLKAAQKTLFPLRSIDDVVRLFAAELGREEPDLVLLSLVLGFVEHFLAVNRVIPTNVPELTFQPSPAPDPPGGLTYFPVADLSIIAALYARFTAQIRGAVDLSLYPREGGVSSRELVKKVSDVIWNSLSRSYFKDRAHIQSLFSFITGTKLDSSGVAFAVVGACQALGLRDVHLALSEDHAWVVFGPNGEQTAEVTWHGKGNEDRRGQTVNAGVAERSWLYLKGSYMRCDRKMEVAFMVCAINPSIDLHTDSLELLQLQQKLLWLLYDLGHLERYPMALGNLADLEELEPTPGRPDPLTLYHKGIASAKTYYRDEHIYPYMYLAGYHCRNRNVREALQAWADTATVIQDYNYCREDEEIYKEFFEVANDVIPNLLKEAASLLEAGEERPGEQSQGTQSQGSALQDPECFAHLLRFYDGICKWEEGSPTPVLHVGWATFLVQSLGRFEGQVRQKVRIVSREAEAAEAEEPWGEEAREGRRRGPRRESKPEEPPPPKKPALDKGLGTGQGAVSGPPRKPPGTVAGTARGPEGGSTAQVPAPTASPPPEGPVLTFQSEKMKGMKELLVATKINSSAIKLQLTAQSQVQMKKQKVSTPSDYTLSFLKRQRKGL
Assay: biochemical
Source text: Compounds that inhibit the interaction decrease the fluorescence anisotropy which is being used as a read-out for compound screening and for IC50 determination.

IC50 [nM]	SMILES
500 to 2000	FC(F)(F)Cc1cc2c(N3CCN(c4nnc(CCc5ccccc5)s4)CC3)ncnc2s1 [Compound 42]
500 to 2000	O=C(CC1CCCCC1)N1CCN(c2ncnc3sc(CC(F)(F)F)cc23)CC1 [Compound 89]
500 to 2000	FC(F)(F)Cc1cc2c(NCC3CCN(Cc4ccc(CN5CCOCC5)cc4)CC3)ncnc2s1 [Compound 272]
500 to 2000	CCCCN(CC1CCN(Cc2ccc(C#N)cc2)CC1)c1ncnc2sc(CC(F)(F)F)cc12 [Compound 264]
< 100	Cc1c(CN2CC[C@@H](Nc3ncnc4sc(CC(F)(F)F)cc34)[C@H](NCCc3ccccc3)C2)ccc2c1cc(C#N)n2CC(N)=O [Compound 288]
100 to 500	FC(F)(F)Cc1sc2ncnc(N3CCN(c4nnc(C(F)(F)F)s4)CC3)c2c1I [Compound 6]
< 100	O=C(Cc1ccc(NS(=O)(=O)C2CC2)cc1Cl)N1CCN(C2=NC=NC3SC(CC(F)(F)F)=CC23)CC1 (stereo not drawn) [Compound 285]
100 to 500	NCc1nnc(N2CCN(c3ncnc4sc(CC(F)(F)F)cc34)CC2)s1 [Compound 4]
< 100	Cc1c(CN2CCC(Nc3ncnc4sc(CC(F)(F)F)cc34)CC2)ncc2[nH]c(C#N)cc12 [Compound 380]
100 to 500	CC(C(N)=O)n1c(C#N)cc2cc(CN3CCC(Nc4ncnc5sc(CC(F)(F)F)cc45)CC3)ccc21 (stereo not drawn) [Compound 247]
100 to 500	OCc1c(CC(F)(F)F)sc2ncnc(NC3CCN(Cc4ccccc4)CC3)c12 [Compound 112]
< 100	O=C(Cc1ccc(NS(=O)(=O)N2CCCCC2)cc1Cl)N1CCN(C2=NC=NC3SC(CC(F)(F)F)=CC23)CC1 (stereo not drawn) [Compound 284]
< 100	CNCCS(=O)(=O)Nc1ccc(CC(=O)N2CCN(c3ncnc4sc(CC(F)(F)F)cc34)CC2)cc1 [Compound 58]
< 100	COCCOCC(O)(CO)Cn1c(C#N)cc2cc(CN3CCC(Nc4ncnc5sc(CC(F)(F)F)cc45)CC3)ccc21 (stereo not drawn) [Compound 314]
< 100	Cc1c(CN2CCC(Nc3ncnc4sc(CC(F)(F)F)cc34)CC2)ccc2c1cc(C#N)n2CC(O)(CO)CCCC1CC1 (stereo not drawn) [Compound 425]
100 to 500	CCOc1c(CN2CCC(Nc3ncnc4sc(CC(F)(F)F)cc34)CC2)ccc2[nH]c(C#N)cc12 [Compound 244]
500 to 2000	O=C(C1CCCCC1)N1CCN(c2ncnc3sc(CC(F)(F)F)cc23)CC1 [Compound 87]
100 to 500	COCC(O)Cn1c(C#N)cc2cc(CN3CCC(Nc4ncnc5sc(CC(F)(F)F)cc45)CC3)ccc21 (stereo not drawn) [Compound 237]
< 100	CNC(=O)Cn1c(C#N)cc2cc(CN3CCC(Nc4ncnc5sc(CC(F)(F)F)cc45)CC3)ccc21 [Compound 212]
100 to 500	CS(=O)(=O)N(CC(N)=O)c1ccc(CC(=O)N2CCN(C3=NC=NC4SC(CC(F)(F)F)=CC34)CC2)c(Cl)c1 (stereo not drawn) [Compound 84]
100 to 500	Cc1ccc(CN2CCC(Nc3ncnc4sc(CC(F)(F)F)cc34)CC2)c(C)c1 [Compound 120]
< 100	N#Cc1cc2c(Br)c(CN3CCC(Nc4ncnc5sc(CC(F)(F)F)cc45)CC3)ccc2n1CC(N)=O [Compound 307]
500 to 2000	CN1CCN(Cc2ccc(CN3CCC(Nc4ncnc5sc(CC(F)(F)F)cc45)CC3)cc2)CC1 [Compound 143]
< 100	N#Cc1cc2c(CO)c(CN3CCC(Nc4ncnc5sc(CC(F)(F)F)cc45)CC3)ccc2n1CCO [Compound 321]
100 to 500	Cc1c(CC(F)(F)F)sc2ncnc(NC3CCN(Cc4ccccc4)CC3)c12 [Compound 126]
500 to 2000	CS(=O)(=O)N(CC1CC1)c1ccc(CC(=O)N2CCN(c3ncnc4sc(CC(F)(F)F)cc34)CC2)cc1 [Compound 102]

IC50 [nM]	SMILES
< 100	N#Cc1cc2c(CO)c(CN3CCC(Nc4ncnc5sc(CC(F)(F)F)cc45)CC3)ccc2[nH]1 [Compound 290]
< 100	N#Cc1cc2cc(CN3CCC(Nc4ncnc5sc(CC(F)(F)F)cc45)CC3)ccc2n1CC(=O)NC1CC1 [Compound 291]
100 to 500	FC(F)(F)Cc1cc2c(NC3CCN(Cc4ccc(N5CCOCC5)cc4Cl)CC3)ncnc2s1 [Compound 115]
100 to 500	COc1ccc(CC(=O)N2CCN(c3ncnc4sc(CC(F)(F)F)cc34)CC2)cc1 [Compound 74]
100 to 500	NC(=O)c1cc2cc(CN3CCC(Nc4ncnc5sc(CC(F)(F)F)cc45)CC3)ccc2[nH]1 [Compound 232]
500 to 2000	FC(F)Oc1ccc(CN2CCC(Nc3ncnc4sc(CC(F)(F)F)cc34)CC2)cc1 [Compound 141]
< 100	CCC(=O)N1CCN(CCn2c(C#N)cc3cc(CN4CCC(Nc5ncnc6sc(CC(F)(F)F)cc56)CC4)ccc32)CC1 [Compound 394]
500 to 2000	NS(=O)(=O)c1ccc(CN2CCC(Nc3ncnc4sc(CC(F)(F)F)cc34)CC2)c(Cl)c1 [Compound 142]
500 to 2000	N#C[C@@H]1C[C@@H]1c1ccc(CN2CCC(Nc3ncnc4sc(CC(F)(F)F)cc34)CC2)cc1 [Compound 159]
< 100	N#Cc1cc2cc(CN3CCC(Nc4ncnc5sc(CC(F)(F)F)cc45)CC3)ccc2n1Cc1cn[nH]c1 [Compound 202]
100 to 500	FC(F)(F)Cc1cc2c(N3CCN(c4nnc(C5CC5)s4)CC3)ncnc2s1 [Compound 3]
< 100	N#Cc1cc2c(CO)c(CN3CCC(Nc4ncnc5sc(CC(F)(F)F)cc45)CC3)ccc2n1CC(N)=O [Compound 325]
< 100	N#Cc1c(F)c2cc(CN3CCC(Nc4ncnc5sc(CC(F)(F)F)cc45)CC3)ccc2n1CC(N)=O [Compound 213]
< 100	Cc1c(CN2CCC(Nc3ncnc4sc(CC(F)(F)F)cc34)CC2)ccc2c1cc(C#N)n2Cc1cn[nH]c1 [Compound 309, 1-((1H-pyrazol-4-yl)methyl)-4-methyl-5-((4-((6-(2,2,2-trifluoroethyl)thieno[2,3-d]pyrimidin-4-yl)amino)piperidin-1-yl)methyl)-1H-indole-2-carbonitrile]
100 to 500	FC(F)(F)Cc1cc2c(N[C@H]3CCN(Cc4ccccc4)C[C@@H]3NCC3CCCC3)ncnc2s1 [Compound 169]
100 to 500	O=C(Cc1ccc2cc[nH]c2c1)N1CCN(c2ncnc3sc(CC(F)(F)F)cc23)CC1 [Compound 81]
100 to 500	CNS(=O)(=O)c1ccc(CC(=O)N2CCN(c3ncnc4sc(CC(F)(F)F)cc34)CC2)cc1 [Compound 82]
500 to 2000	OCc1ccc(CN2CCC(CNc3ncnc4sc(CC(F)(F)F)cc34)CC2)cc1 [Compound 266]
100 to 500	N#Cc1cc2cc(CN3CCC(Nc4ncnc5sc(CC(F)(F)F)cc45)CC3)cc(F)c2n1CC(N)=O [Compound 246]
< 100	N#Cc1cc2cc(CN3CCC(Nc4ncnc5sc(CC(F)(F)F)cc45)CC3)ccc2n1CCN1CCNCC1 [Compound 393]
< 100	Cc1c(CN2CCC(Nc3ncnc4sc(CCF)cc34)CC2)ccc2[nH]c(C#N)cc12 [Compound 423]
< 100	Cc1c(CN2CCC(Nc3ncnc4sc(CC(F)(F)F)cc34)CC2)ccc2c1cc(C#N)n2CCn1cncn1 [Compound 304]
< 100	Cc1c(CN2CCC(Nc3ncnc4sc(CC(F)(F)F)cc34)CC2)ccc2c1cc(C#N)n2CC(O)(CO)CC1CCCCC1 (stereo not drawn) [Compound 348]
< 100	CCCCC(O)(CO)Cn1c(C#N)cc2c(C)c(CN3CCC(Nc4ncnc5sc(CC(F)(F)F)cc45)CC3)ccc21 (stereo not drawn) [Compound 338]
< 100	N#Cc1cc2cc(C(CO)N3CCC(Nc4ncnc5sc(CC(F)(F)F)cc45)CC3)ccc2[nH]1 (stereo not drawn) [Compound 211]
